Reference: patent publication US20100150863A1, “HYDROXY METHYL PHENYL PYRAZOLYL UREA COMPOUND USEFUL IN TREATMENT OF CANCER” (BAYER PHARMACEUTICALS CORPORATION, priority 2006, published 2010)

Experiments:
[1] = test system: Bcr-Abl kinase; settings: greater potency than Imatinib; cited from earlier work
[2] = test system: Bcr-Abl E255K mutant; settings: cited from earlier work
[3] = test system: Imatinib-resistant Bcr-Abl mutations; settings: cited from earlier work
[4] = biological target: T1, human recombinant c-Met (Homo sapiens, UniProt P08581); assay: c-Met biochemical assay (ELISA)
T1 construct: C-terminal HIS-tagged intracellular kinase domain (956 to 1390 amino acids) human recombinant c-Met; His (C)
Method: An ELISA format was used for the c-Met biochemical assay. This assay uses the C-terminal HIS-tagged intracellular kinase domain (956 to 1390 amino acids) human recombinant c-Met in 96-well plates. 96-Well plates (Costar #9018) coated with poly(GluTyr) (Sigma # P0275) were used in this assay. The poly(GluTyr) substrate coated on the plate was phosphorylated in a 100 μL reaction volume with 2 nM c-Met protein in an assay buffer (50 mM HEPES pH7.0, 5 mM MnCl2, 0.1% BSA, 0.5 mM sodium orthovanadate, 0.1% β-mercaptoethanol), with 0.2 μM ATP (Sigma #A7699). […] After 25 minutes of incubation, the assay reaction was stopped with 25 μL of 100 mM EDTA. The plates were then washed, and wells were treated with 100 μL of 80 ng/mL anti-4G10-HRP antibody (Upstate #16-105) for 1 h. Plates were washed one final time, and were developed with 100 μL 3,3′,5,5′-TMB (Sigma #T8665), and quenched with 100 μL 1M HCl. Plates were read on a Victor 2 plate reader (Perkin Elmer) and IC50 analysis and calculation were performed using in-house software.

[5] = biological target: T2, Bcr-Abl-wt kinase (Homo sapiens, UniProt P00519); assay: Bcr-Abl wild type biochemical assay
T2 construct: fused on or other part: P11274 (Breakpoint cluster region protein)
T2 sequence (P00519 229-512 limits assumed): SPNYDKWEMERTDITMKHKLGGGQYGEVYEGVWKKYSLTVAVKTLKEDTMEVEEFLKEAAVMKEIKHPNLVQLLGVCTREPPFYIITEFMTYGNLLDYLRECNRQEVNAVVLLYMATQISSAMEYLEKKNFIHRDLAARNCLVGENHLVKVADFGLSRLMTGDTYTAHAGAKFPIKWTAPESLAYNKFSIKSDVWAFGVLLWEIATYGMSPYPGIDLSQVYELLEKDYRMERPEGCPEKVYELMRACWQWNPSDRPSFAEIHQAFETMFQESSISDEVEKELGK
Method: (§1) Bcr-Abl-wt or mutant Bcr-Abl-T315I kinase (0.17 nM) was incubated with Myelin Basic Protein (MBP, 2 μM) in assay buffer consisting of 50 mM Tris pH 7.5, 10 mM MgCl2, 1 mM EGTA, 2 mM DTT, 50 μM ATP and 0.4 μCi of ^33P-ATP. Test compounds were added at varying concentrations (final DMSO conc=1%) prior to the addition of ATP. The reaction mixture was incubated for 1 hour at 32° C. The reaction was then stopped by addition of phosphoric acid (final conc=1%) and samples were transferred to filtermats and read in a betaplate reader. Inhibition of MBP phosphorylation by Bcr-Abl-wt or Bcr-Abl-T315I was analyzed by using a 4 parameter fit and in-house software.

[6] = biological target: T3, mutant Bcr-Abl-T315I kinase (Homo sapiens, UniProt P00519, T315I); assay: Bcr-Abl mutant T315I biochemical assay
T3 construct: fused on or other part: P11274 (Breakpoint cluster region protein)
T3 sequence (P00519 242-493 T315I limits assumed): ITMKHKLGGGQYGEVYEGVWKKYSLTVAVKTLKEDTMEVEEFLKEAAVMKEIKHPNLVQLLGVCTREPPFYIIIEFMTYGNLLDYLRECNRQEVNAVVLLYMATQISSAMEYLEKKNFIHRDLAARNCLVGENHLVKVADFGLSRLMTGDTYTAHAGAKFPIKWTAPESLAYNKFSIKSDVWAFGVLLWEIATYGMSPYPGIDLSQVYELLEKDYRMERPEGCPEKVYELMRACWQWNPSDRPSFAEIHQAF
Method: as §1

[7] = test system: K562; assay: Cell proliferation assay, K562; assay type: cell-based; settings: K562, human cell line expressing wild type Bcr-Abl; 72 hours, Cell Titer Glo
Text: [Worded in the source for another cell line; this cell line is reported under the same test.] (§2) The adherent tumor cell proliferation assay used to test the compounds of the present invention involves a readout called Cell Titre-Glo developed by Promega (Cunningham, B A “A Growing Issue: Cell Proliferation Assays. Modern kits ease quantification of cell growth” The Scientist 2001, 15(13), 26; and Crouch, S P et al., “The use of ATP bioluminescence as a measure of cell proliferation and cytotoxicity” Journal of Immunological Methods 1993, 160, 81-88).
(§3) H460 cells (lung carcinoma, purchased from ATCC) were plated in 96-well plates at 3000 cells/well in complete media with 10% Fetal Calf Serum and incubated 24 hours at 37° C. Twenty-four hours after plating, test compounds were added over a final concentration range of 10 nM to 20 μM in serial dilutions at a final DMSO concentration of 0.2%. Cells were incubated for 72 hours at 37° C. in complete growth media after addition of the test compound. On day 4, using a Promega Cell Titer Glo Luminescent® assay kit, the cells were lysed and 100 microliters of substrate/buffer mixture was added to each well, mixed and incubated at room temperature for 8 minutes. The samples were read on a luminometer to measure the amount of ATP present in the cell lysates from each well, which corresponds to the number of viable cells in that well. Values read at 24-hour incubation were subtracted as Day 0. […]

[8] = test system: BaF3-Abl(wt); assay: Cell proliferation assay, BaF3-Abl(wt); assay type: cell-based
Text: [Worded in the source for another cell line; this cell line is reported under the same test.] as §2, §3

[9] = test system: BaF3-Abl(T315I); assay: Cell proliferation assay, BaF3-Abl(T315I); assay type: cell-based; settings: Imatinib-resistant mutation
Text: [Worded in the source for another cell line; this cell line is reported under the same test.] as §2, §3

[10] = test system: BaF3-Abl(E255K); assay: Cell proliferation assay, BaF3-Abl(E255K); assay type: cell-based; settings: Imatinib-resistant mutation
Text: [Worded in the source for another cell line; this cell line is reported under the same test.] as §2, §3

[11] = test system: BaF3-Abl(M351T); assay: Cell proliferation assay, BaF3-Abl(M351T); assay type: cell-based; settings: Imatinib-resistant mutation
Text: [Worded in the source for another cell line; this cell line is reported under the same test.] as §2, §3

[12] = test system: BaF3-Abl(Y253F); assay: Cell proliferation assay, BaF3-Abl(Y253F); assay type: cell-based; settings: Imatinib-resistant mutation
Text: [Worded in the source for another cell line; this cell line is reported under the same test.] as §2, §3

[13] = test system: BaF3 parental cell line that does not express Bcr-Abl; assay: Cell proliferation assay, BaF3 parental cell line; assay type: cell-based; settings: Mus musculus
[14] = test system: early phase CML; settings: patients with early phase CML; cited from earlier work

T1 sequence (P08581 956-1390): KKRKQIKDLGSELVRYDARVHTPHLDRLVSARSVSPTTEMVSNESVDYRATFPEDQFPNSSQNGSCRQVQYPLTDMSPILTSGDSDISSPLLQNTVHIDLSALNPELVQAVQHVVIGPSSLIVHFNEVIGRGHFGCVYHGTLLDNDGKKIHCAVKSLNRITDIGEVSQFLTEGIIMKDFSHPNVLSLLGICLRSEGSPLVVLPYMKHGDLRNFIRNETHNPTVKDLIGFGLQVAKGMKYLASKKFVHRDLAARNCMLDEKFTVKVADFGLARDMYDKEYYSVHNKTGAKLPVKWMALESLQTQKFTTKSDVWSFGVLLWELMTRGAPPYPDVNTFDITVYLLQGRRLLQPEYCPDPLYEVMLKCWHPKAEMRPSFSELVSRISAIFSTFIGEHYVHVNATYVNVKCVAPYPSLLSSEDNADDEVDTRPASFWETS

**Q.** For Cc1cn(-c2cc(NC(=O)c3ccc(C)c(Nc4nccc(-c5cccnc5)n4)c3)cc(C(F)(F)F)c2)cn1 [AMN-107, nilotinib], which “potency of Bcr-Abl kinase inhibition relative to Imatinib” value [1] is on record?
**A.** 20 fold

**Q.** And the “inhibition of E255K mutant in a biochemical assay” value [2]?
**A.** somewhat weak inhibition

**Q.** What about the “inhibition of Imatinib-resistant Bcr-Abl mutations” value [3] of the same molecule?
**A.** inhibit most Imatinib-resistant Bcr-Abl mutations, except for T315I

**Q.** Which results are given for CNC(=O)c1cc(Oc2ccc(NC(=O)Nc3cc(C(C)(C)C)nn3-c3cccc(CO)c3)c(Cl)c2)ccn1 [ANDREA-1, 4-{4-[({3-tert-Butyl-1-[3-(hydroxymethyl)phenyl]-1H-pyrazol-5-yl}carbamoyl)amino]-3-chlorophenoxy}-N-methylpyridine-2-carboxamide]?
**A.** IC50 [4]: < 10 µM; IC50 [5]: < 10 µM; IC50 [6]: < 10 µM; IC50 [7]: 0.448 nM; IC50 [8]: 2.81 nM; IC50 [9]: 71 nM; IC50 [10]: 53.9 nM; IC50 [11]: 8.38 nM; IC50 [12]: 4.96 nM; IC50 [13]: > 3000 nM

**Q.** With Cc1ccc(NC(=O)c2ccc(CN3CCN(C)CC3)cc2)cc1Nc1nccc(-c2cccnc2)n1 [Imatinib] as the molecule, how does the “degree of response at haematological and cytogenetic levels” value [14] read?
**A.** greater than 90%
